# In US8952024B2, “Herbicidal pyrimidone derivatives” (E I du Pont de Nemours and Company, priority 2009, dated 2015):
# System: cocklebur (Xanthium strumarium)
# Experiment: Test B pre-/postemergence plant response
# Format: in vivo
# Settings: 31 g ai/ha, postemergence; scale 0 to 100, 0 is no effect, 100 is complete control
# How it was run: (§1)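 Plants treated either at seeding (loam/sand soil) or postemergence at 2 to 18 cm height, using a surfactant-containing non-phytotoxic solvent formulation. Evaluation was visual after 13 to 15 days, 0 to 100 scale relative to controls.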
row,SMILES,"Plant response rating, Cocklebur"
1,COCCn1c(-c2ccccc2)ncc(C(=O)C2=C(O)CCCC2=O)c1=O [Compound 85],95

# Same assay, conditions: 62 g ai/ha, postemergence; 0 is no effect, 100 is complete control; 13 to 15 days
row,SMILES,Cocklebur plant response rating (0 to 100 scale)
1,COCCn1c(-c2ccccc2)ncc(C(=O)C2=C(O)CCCC2=O)c1=O [Compound 85],95

# Same assay, conditions: Postemergence, 125 g ai/ha; visual rating after 13 to 15 days, scale 0 (no effect) to 100 (complete control)
row,SMILES,"Plant response rating, Cocklebur"
1,COCCn1c(-c2ccccc2)ncc(C(=O)C2=C(O)CCCC2=O)c1=O [Compound 85],98

# Same assay, conditions: Postemergence, 250 g ai/ha; scale 0 to 100 (0 no effect, 100 complete control)
row,SMILES,"Plant response rating, Cocklebur"
1,COCCn1c(-c2ccccc2)ncc(C(=O)C2=C(O)CCCC2=O)c1=O [Compound 85],98

# System: goosegrass (Eleusine indica)
# Experiment: Test B pre-/postemergence plant response
# Format: in vivo
# Settings: 31 g ai/ha, postemergence; scale 0 to 100, 0 is no effect, 100 is complete control
# How it was run: as §1
row,SMILES,"Plant response rating, Goosegrass"
1,COCCn1c(-c2ccccc2)ncc(C(=O)C2=C(O)CCCC2=O)c1=O [Compound 85],70

# Same assay, conditions: 62 g ai/ha, postemergence; 0 is no effect, 100 is complete control; 13 to 15 days
row,SMILES,Goosegrass plant response rating (0 to 100 scale)
1,COCCn1c(-c2ccccc2)ncc(C(=O)C2=C(O)CCCC2=O)c1=O [Compound 85],70

# Same assay, conditions: Postemergence, 250 g ai/ha; scale 0 to 100 (0 no effect, 100 complete control)
row,SMILES,"Plant response rating, Goosegrass"
1,COCCn1c(-c2ccccc2)ncc(C(=O)C2=C(O)CCCC2=O)c1=O [Compound 85],85

# System: johnsongrass (Sorghum halepense)
# Experiment: Test B pre-/postemergence plant response
# Format: in vivo
# Settings: 31 g ai/ha, postemergence; scale 0 to 100, 0 is no effect, 100 is complete control
# How it was run: as §1
row,SMILES,"Plant response rating, Johnsongrass"
1,COCCn1c(-c2ccccc2)ncc(C(=O)C2=C(O)CCCC2=O)c1=O [Compound 85],80

# Same assay, conditions: 62 g ai/ha, postemergence; 0 is no effect, 100 is complete control; 13 to 15 days
row,SMILES,Johnsongrass plant response rating (0 to 100 scale)
1,COCCn1c(-c2ccccc2)ncc(C(=O)C2=C(O)CCCC2=O)c1=O [Compound 85],95

# Same assay, conditions: Postemergence, 250 g ai/ha; scale 0 to 100 (0 no effect, 100 complete control)
row,SMILES,"Plant response rating, Johnsongrass"
1,COCCn1c(-c2ccccc2)ncc(C(=O)C2=C(O)CCCC2=O)c1=O [Compound 85],98

# System: kochia (Kochia scoparia)
# Experiment: Test B pre-/postemergence plant response
# Format: in vivo
# Settings: 31 g ai/ha, postemergence; scale 0 to 100, 0 is no effect, 100 is complete control
# How it was run: as §1
row,SMILES,"Plant response rating, Kochia"
1,COCCn1c(-c2ccccc2)ncc(C(=O)C2=C(O)CCCC2=O)c1=O [Compound 85],75

# Same assay, conditions: 62 g ai/ha, postemergence; 0 is no effect, 100 is complete control; 13 to 15 days
row,SMILES,Kochia plant response rating (0 to 100 scale)
1,COCCn1c(-c2ccccc2)ncc(C(=O)C2=C(O)CCCC2=O)c1=O [Compound 85],85

# Same assay, conditions: Postemergence, 250 g ai/ha; scale 0 to 100 (0 no effect, 100 complete control)
row,SMILES,"Plant response rating, Kochia"
1,COCCn1c(-c2ccccc2)ncc(C(=O)C2=C(O)CCCC2=O)c1=O [Compound 85],90

# System: pigweed (Amaranthus retroflexus)
# Experiment: Test B pre-/postemergence plant response
# Format: in vivo
# Settings: 31 g ai/ha, postemergence; scale 0 to 100, 0 is no effect, 100 is complete control
# How it was run: as §1
row,SMILES,"Plant response rating, Pigweed"
1,COCCn1c(-c2ccccc2)ncc(C(=O)C2=C(O)CCCC2=O)c1=O [Compound 85],100

# Same assay, conditions: 62 g ai/ha, postemergence; 0 is no effect, 100 is complete control; 13 to 15 days
row,SMILES,Pigweed plant response rating (0 to 100 scale)
1,COCCn1c(-c2ccccc2)ncc(C(=O)C2=C(O)CCCC2=O)c1=O [Compound 85],100

# Same assay, conditions: Postemergence, 250 g ai/ha; scale 0 to 100 (0 no effect, 100 complete control)
row,SMILES,"Plant response rating, Pigweed"
1,COCCn1c(-c2ccccc2)ncc(C(=O)C2=C(O)CCCC2=O)c1=O [Compound 85],100

# System: ragweed (common ragweed, Ambrosia elatior)
# Experiment: Test B pre-/postemergence plant response
# Format: in vivo
# Settings: 31 g ai/ha, postemergence; scale 0 to 100, 0 is no effect, 100 is complete control
# How it was run: as §1
row,SMILES,"Plant response rating, Ragweed"
1,COCCn1c(-c2ccccc2)ncc(C(=O)C2=C(O)CCCC2=O)c1=O [Compound 85],80

# Same assay, conditions: 62 g ai/ha, postemergence; 0 is no effect, 100 is complete control; 13 to 15 days
row,SMILES,Ragweed plant response rating (0 to 100 scale)
1,COCCn1c(-c2ccccc2)ncc(C(=O)C2=C(O)CCCC2=O)c1=O [Compound 85],85

# Same assay, conditions: Postemergence, 250 g ai/ha; scale 0 to 100 (0 no effect, 100 complete control)
row,SMILES,"Plant response rating, Ragweed"
1,COCCn1c(-c2ccccc2)ncc(C(=O)C2=C(O)CCCC2=O)c1=O [Compound 85],98

# System: soybean (Glycine max)
# Experiment: Test B pre-/postemergence plant response
# Format: in vivo
# Settings: 31 g ai/ha, postemergence; scale 0 to 100, 0 is no effect, 100 is complete control
# How it was run: as §1
row,SMILES,"Plant response rating, Soybean"
1,COCCn1c(-c2ccccc2)ncc(C(=O)C2=C(O)CCCC2=O)c1=O [Compound 85],80

# Same assay, conditions: 62 g ai/ha, postemergence; 0 is no effect, 100 is complete control; 13 to 15 days
row,SMILES,Soybean plant response rating (0 to 100 scale)
1,COCCn1c(-c2ccccc2)ncc(C(=O)C2=C(O)CCCC2=O)c1=O [Compound 85],85

# Same assay, conditions: Postemergence, 250 g ai/ha; scale 0 to 100 (0 no effect, 100 complete control)
row,SMILES,"Plant response rating, Soybean"
1,COCCn1c(-c2ccccc2)ncc(C(=O)C2=C(O)CCCC2=O)c1=O [Compound 85],95

# System: velvetleaf (Abutilon theophrasti)
# Experiment: Test B pre-/postemergence plant response
# Format: in vivo
# Settings: 31 g ai/ha, postemergence; scale 0 to 100, 0 is no effect, 100 is complete control
# How it was run: as §1
row,SMILES,"Plant response rating, Velvetleaf"
1,COCCn1c(-c2ccccc2)ncc(C(=O)C2=C(O)CCCC2=O)c1=O [Compound 85],90

# Same assay, conditions: 62 g ai/ha, postemergence; 0 is no effect, 100 is complete control; 13 to 15 days
row,SMILES,Velvetleaf plant response rating (0 to 100 scale)
1,COCCn1c(-c2ccccc2)ncc(C(=O)C2=C(O)CCCC2=O)c1=O [Compound 85],98

# Same assay, conditions: Postemergence, 250 g ai/ha; scale 0 to 100 (0 no effect, 100 complete control)
row,SMILES,"Plant response rating, Velvetleaf"
1,COCCn1c(-c2ccccc2)ncc(C(=O)C2=C(O)CCCC2=O)c1=O [Compound 85],98

# System: wheat (Triticum aestivum)
# Experiment: Test B pre-/postemergence plant response
# Format: in vivo
# Settings: 31 g ai/ha, postemergence; scale 0 to 100, 0 is no effect, 100 is complete control
# How it was run: as §1
row,SMILES,"Plant response rating, Wheat"
1,COCCn1c(-c2ccccc2)ncc(C(=O)C2=C(O)CCCC2=O)c1=O [Compound 85],0

# Same assay, conditions: 62 g ai/ha, postemergence; 0 is no effect, 100 is complete control; 13 to 15 days
row,SMILES,Wheat plant response rating (0 to 100 scale)
1,COCCn1c(-c2ccccc2)ncc(C(=O)C2=C(O)CCCC2=O)c1=O [Compound 85],5

# Same assay, conditions: Postemergence, 250 g ai/ha; scale 0 to 100 (0 no effect, 100 complete control)
row,SMILES,"Plant response rating, Wheat"
1,COCCn1c(-c2ccccc2)ncc(C(=O)C2=C(O)CCCC2=O)c1=O [Compound 85],35

# System: wild oat (Avena fatua)
# Experiment: Test B pre-/postemergence plant response
# Format: in vivo
# Settings: 31 g ai/ha, postemergence; scale 0 to 100, 0 is no effect, 100 is complete control
# How it was run: as §1
row,SMILES,"Plant response rating, Oat, Wild"
1,COCCn1c(-c2ccccc2)ncc(C(=O)C2=C(O)CCCC2=O)c1=O [Compound 85],5

# Same assay, conditions: 62 g ai/ha, postemergence; 0 is no effect, 100 is complete control; 13 to 15 days
row,SMILES,"Oat, Wild plant response rating (0 to 100 scale)"
1,COCCn1c(-c2ccccc2)ncc(C(=O)C2=C(O)CCCC2=O)c1=O [Compound 85],25

# Same assay, conditions: Postemergence, 250 g ai/ha; scale 0 to 100 (0 no effect, 100 complete control)
row,SMILES,"Plant response rating, Oat, Wild"
1,COCCn1c(-c2ccccc2)ncc(C(=O)C2=C(O)CCCC2=O)c1=O [Compound 85],60

# System: canarygrass (Phalaris minor)
# Experiment: Test B postemergence plant response
# Format: in vivo
# Settings: 31 g ai/ha, postemergence; scale 0 to 100, 0 is no effect, 100 is complete control
# How it was run: (§2)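 Visual ratings from 0 (no effect) to 100 (complete control), made against controls 13–15 days after treatment, kept in a greenhouse. Compounds were applied postemergence to potted plants at the 1- to 4-leaf stage (2–18 cm).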
row,SMILES,"Plant response rating, Canarygrass"
1,COCCn1c(-c2ccccc2)ncc(C(=O)C2=C(O)CCCC2=O)c1=O [Compound 85],35

# Same assay, conditions: 62 g ai/ha, postemergence; 0 is no effect, 100 is complete control; 13 to 15 days
row,SMILES,Canarygrass plant response rating (0 to 100 scale)
1,COCCn1c(-c2ccccc2)ncc(C(=O)C2=C(O)CCCC2=O)c1=O [Compound 85],40

# Same assay, conditions: Postemergence, 125 g ai/ha; visual rating after 13 to 15 days, scale 0 (no effect) to 100 (complete control)
row,SMILES,"Plant response rating, Canarygrass"
1,COCCn1c(-c2ccccc2)ncc(C(=O)C2=C(O)CCCC2=O)c1=O [Compound 85],55

# Same assay, conditions: Postemergence, 250 g ai/ha; scale 0 to 100 (0 no effect, 100 complete control)
row,SMILES,"Plant response rating, Canarygrass"
1,COCCn1c(-c2ccccc2)ncc(C(=O)C2=C(O)CCCC2=O)c1=O [Compound 85],60

# System: chickweed (Stellaria media)
# Experiment: Test B postemergence plant response
# Format: in vivo
# Settings: 31 g ai/ha, postemergence; scale 0 to 100, 0 is no effect, 100 is complete control
# How it was run: as §2
row,SMILES,"Plant response rating, Chickweed"
1,COCCn1c(-c2ccccc2)ncc(C(=O)C2=C(O)CCCC2=O)c1=O [Compound 85],85

# Same assay, conditions: 62 g ai/ha, postemergence; 0 is no effect, 100 is complete control; 13 to 15 days
row,SMILES,Chickweed plant response rating (0 to 100 scale)
1,COCCn1c(-c2ccccc2)ncc(C(=O)C2=C(O)CCCC2=O)c1=O [Compound 85],95

# Same assay, conditions: Postemergence, 125 g ai/ha; visual rating after 13 to 15 days, scale 0 (no effect) to 100 (complete control)
row,SMILES,"Plant response rating, Chickweed"
1,COCCn1c(-c2ccccc2)ncc(C(=O)C2=C(O)CCCC2=O)c1=O [Compound 85],95

# Same assay, conditions: Postemergence, 250 g ai/ha; scale 0 to 100 (0 no effect, 100 complete control)
row,SMILES,"Plant response rating, Chickweed"
1,COCCn1c(-c2ccccc2)ncc(C(=O)C2=C(O)CCCC2=O)c1=O [Compound 85],98

# System: windgrass (Apera spica-venti)
# Experiment: Test B postemergence plant response
# Format: in vivo
# Settings: 31 g ai/ha, postemergence; scale 0 to 100, 0 is no effect, 100 is complete control
# How it was run: as §2
row,SMILES,"Plant response rating, Windgrass"
1,COCCn1c(-c2ccccc2)ncc(C(=O)C2=C(O)CCCC2=O)c1=O [Compound 85],40

# Same assay, conditions: 62 g ai/ha, postemergence; 0 is no effect, 100 is complete control; 13 to 15 days
row,SMILES,Windgrass plant response rating (0 to 100 scale)
1,COCCn1c(-c2ccccc2)ncc(C(=O)C2=C(O)CCCC2=O)c1=O [Compound 85],70

# Same assay, conditions: Postemergence, 250 g ai/ha; scale 0 to 100 (0 no effect, 100 complete control)
row,SMILES,"Plant response rating, Windgrass"
1,COCCn1c(-c2ccccc2)ncc(C(=O)C2=C(O)CCCC2=O)c1=O [Compound 85],95
